# Measurements published in patent publication US10292994B2, “Bioactive fractions and compounds from Dalbergia sissoo for the prevention or treatment of osteo-health related disorders” (Council of Scientific & Industrial Research, priority 2011, dated 2019).
# Marks after values point to notes of the source that are not given here.
# Legend:
# [1] = tested on: Osteoblasts; assay: Osteoblast growth / toxicity (MTT); assay type: cell-based, rat; details: FIG. 8; for growth / proliferation of the osteoblastic cells: 1 pM to 1 μM, 48 h
# Description: (§1) Briefly, for calvarial osteoblast cultures, frontal and parietal bones from neonatal Sprague-Dawley rats (1-3 day old) were digested in 0.1% collagenase/0.1% dispase in α-MEM to obtain 5 sequential digests. The second through fifth digests are combined and grown to confluence at 37° C. and 5% CO2 in air in α-MEM, supplemented with 10% fetal bovine serum (FBS), 2 mM glutamine, 100 U/ml penicillin-streptomycin, non-essential amino acid solution and sodium pyruvate. These osteoblast cells were further used to test thirteen pure compounds designated as 1-13. During the course of culture, pre-osteoblasts undergo three characteristic stages of osteoblasts with the expression of stage specific genes. These are: • Proliferation & differentiation: Days 1-12 • Genes—cbfa1, Osterix, Alkaline phosphatase, • Collagen-1 • Extra-cellular matrix maturation: Days 12-18 • Genes—Osteocalcin, Osteopontin, Fibronectin • Mineralization: Days 14-35 • Feature—Calcification (nodule formation) Measurement of Osteoblast Alkaline Phosphatase (ALP) Activity
# Many isoflavonoids at micromolar concentrations are known to inhibit osteoblast cell growth. Osteoblasts were cultured in the absence or presence of compounds (dissolved in 0.01% DMSO final concentration) at various concentrations (1 pM to 1 μM) for 48 h. Cells receiving vehicle (0.01% DMSO) served as control. After incubation, the cells were washed with PBS. Then, cells were treated with MTT solution (5 mg/10 mL in DMEM devoid of Phenol Red) for 4 h. Formazon crystals formed were dissolved in DMSO and O.D. was taken at 540 nm.
# [2] = tested on: Calvarial osteoblasts; assay: Osteoblast alkaline phosphatase (ALP) activity; assay type: cell-based, rat; details: for ALP activity: calvarial osteoblasts, 10 days culture, FIG. 6
# Description: as §1, with “Neonatal rat calvarial cell cultures are prepared as described previously (Chattopadhyay et al., Endocrinology 145:3451-62, 2004) using slight modification. Briefly,” for “Briefly,”
# Calvarial osteoblasts cells were plated (1500 cells/well in 12 well plate) in the osteoblast differentiation medium and the culture was continued for 10 days with or without treatment with these compounds. This is the time when the ALP levels peak, and serves as an osteoblast differentiation marker. The cells at this point were washed twice with PBS and then plates were fixed by keeping them at −70° C. for 1 h, and then brought to room temperature to determine ALP activity. The rate of the reaction here is directly proportional to the enzyme activity, which itself is proportional to osteoblast differentiation. The O.D. was measured at 405 nm with a microplate reader.
# [3] = tested on: bone morphogenetic protein (BMP-2); assay: In vivo osteogenic efficacy: BMP-2 expression in calvaria by qPCR; design: species or system rat; details: calvaria of 1- to 2-day-old rats, 5.0 mg·kg−1·day−1 s.c. for 3 consecutive days, fold change over vehicle/untreated, FIG. 7
# Text: The results are expressed as fold change over untreated cells (FIG. 7).
# [4] = tested on: ovariectomized Balb/c mice; assay: μCT trabecular microarchitecture after 8 weeks treatment of osteopenic OVx mice; assay type: in vivo, mouse; design: Tb. Th. / Tb. Sp.: unit not given here; details: for SMI / Tb. No. / Tb. Sp. / Tb. Th. / BV/TV: 8 weeks; for BV/TV: osteopenic OVx mice, mean ± S.D.
# Description: The study was conducted in accordance with current legislation on animal experiments [Institutional Animal Ethical Committee (IAEC)] at C.D.R.I. Balb/c mice weighing ˜25-30 gm were either bilaterally ovariectomized (OVx) or exposed to a sham surgical procedure. After ovariectomy, mice were left for 30 days for osteopenia to develop. Mice were individually housed at 21° C., in 12-h light:12-h dark cycles. All mice had excess to normal chow diet and water ad libitum. […], treatment in the form of gavage (1.0 mg and 5.0 mg/kg body weight) was given daily. Equal numbers of OVx and sham operated mice served as the control, and were given vehicle. At the end of 8 weeks, mice were euthanized. At autopsy, both femur and tibia were dissected and separated from adjacent tissue, cleaned, and used for μCT measurements.
# [5] = tested on: bone marrow stromal cells; assay: Mineralization of bone marrow stromal cells of estrogen deficient rats; assay type: in vivo, rat; details: estrogen deficient (OVx) rats vs OVx rats treated with vehicle; estrogen 2.5 μg/kg
# [6] = tested on: ovariectomized (OVx) Sprague Dawley rats; assay: μCT trabecular microarchitecture after 12 weeks treatment of OVx rats; assay type: in vivo, rat; details: for SMI / Tb. No. / Tb. Sp. / Tb. Th.: estradiol 2.5 μg·kg−1·day−1; for BV/TV: estradiol 2.5 μg·kg−1·day−1, mean ± S.D.
# Description: The study was conducted in accordance with current legislation on animal experiments [Institutional Animal Ethical Committee (IAEC)] at C.D.R.I. […] Sprague Dawley rats weighing 180-200 gm were either bilaterally ovariectomized (OVx) or exposed to a sham surgical procedure. All rats were individually housed at 21° C., in 12-h light:12-h dark cycles. All rats had excess to normal chow diet and water ad libitum. After OVx, the rats were left for 12 weeks to develop osteopenia. […] Equal numbers of OVx and sham operated rats served as the control, and were given vehicle (20% ethanol). The rats were weighed each week. […] After twenty-four hours of fasting urine samples were collected in fresh containers, centrifuged at 2000 rpm at room temperature and stored at -20° C. until analyzed. Rats were then euthanized. At autopsy, blood samples were collected by cardiac puncture in tubes, and serum samples collected and frozen until analysis. Uteri were carefully excised, gently blotted, weighed, and fixed for histology and histomorphometry. About 5 mm pieces from the middle segment of each uterus were dehydrated in ascending grades of ethanol, cleared in xylene, and embedded in paraffin wax using standard procedures. Representative transverse sections (5 μm) were stained with H&E stain. Photomicrographs of sections were obtained using a Leica DC 300 camera and Leica IM50 Image Acquisition software fitted to a Leica DMLB microscope. Histomorphometric measurements were done using Leica Qwin-Semiautomatic image Analysis software. μCT (both 2-D and 3-D) determination of excised bones was carried out using the Sky Scan 1076 μCT scanner (Aartselaar, Belgium) using the cone-beam reconstruction software version 2.6 based on the Feldkamp algorithm (Skyscan). The bone marrow was harvested for ex vivo experiments. Both femora were dissected and separated from adjacent tissue, cleaned, and used for RNA isolation and also micro measurements. Trabecular response to A-4744/[…] treatment of OVx rats was quantified at the femur epiphysis and tibial proximal metaphysis.
# [7] = femur, OVx mice, 1 mg · kg^-1 · day^-1
# [8] = femur, OVx mice, 5 mg · kg^1 · day^1
# [9] = tibia, OVx mice, 1 mg · kg^-1 · day^-1
# [10] = tibia, OVx mice, 5 mg · kg^1 · day^1
compound,measurement,setting,value
"COc1ccc(-c2coc3cc(O)cc(O)c3c2=O)cc1 [Compound 1, Biochanin A]",growth / proliferation of the osteoblastic cells,[1],proliferation
same,ALP activity,[2],significantly increased
"COc1cc(-c2coc3cc(O)cc(O)c3c2=O)ccc1O [Compound 3, Pratensein or 3′-methoxygenistein]",growth / proliferation of the osteoblastic cells,[1],proliferation
same,ALP activity,[2],significantly increased
"O=c1c(-c2ccc(O)cc2)coc2cc(O)cc(O)c12 [Compound 4, Genstein]",growth / proliferation of the osteoblastic cells,[1],proliferation
same,increase in BMP-2 expression,[3],5 fold
same,ALP activity,[2],significantly increased
"COc1ccc(-c2coc3cc(O[C@@H]4OC(CO)[C@@H](O)[C@H](O)C4O)cc(O)c3c2=O)cc1 (stereo partly drawn) [Compound 6, Biochanin 7-O-glycoside]",melting point,,206 to 208 °C
same,growth / proliferation of the osteoblastic cells,[1],proliferation
same,ALP activity,[2],significantly increased
COc1cc(OC)c(-c2coc3cc(O[C@@H]4OC(COC5OCC(O)(CO)C5O)[C@@H](O)C(O)C4O)c(OC)c(O)c3c2=O)cc1OC (stereo partly drawn) [Compound 10],trabecular bone in tibia metaphysis,[4]; OVx mice,significantly restored
same,Tb.sp and SMI,[4]; femur epiphysis of OVx mice compared to OVx+vehicle mice,increased
same,"BV/TV, Tb.Th and Tb.N",[4]; femur epiphysis of OVx mice compared with OVx+vehicle group,increased
same,SMI,[4]; [7],1.992 ± 0.0382
same,Tb. No.,[4]; [7],0.588 ± 0.034
same,Tb. Sp.,[4]; [7],0.529 ± 0.022
same,Tb. Th.,[4]; [7],0.069 ± 0.002
same,SMI,[4]; [8],1.615 ± 0.0434***^a
same,Tb. No.,[4]; [8],0.759 ± 0.061***^b
same,Tb. Sp.,[4]; [8],0.502 ± 0.023 ^
same,Tb. Th.,[4]; [8],0.070 ± 0.001 ^
same,BV/TV,"[4]; femur, 1 mg · kg^-1 · day^-1",4.10 ± 0.253 %
same,BV/TV,"[4]; femur, 5 mg · kg^1 · day^1",5.54 ± 0.739***^a %
same,SMI,[4]; [9],2.46 ± 0.051
same,Tb. No.,[4]; [9],0.222 ± 0.018
same,Tb. Sp.,[4]; [9],0.690 ± 0.013
same,Tb. Th.,[4]; [9],0.064 ± 0.0015
same,SMI,[4]; [10],2.43 ± 0.072
same,Tb. No.,[4]; [10],0.266 ± 0.014
same,Tb. Sp.,[4]; [10],0.671 ± 0.040
same,Tb. Th.,[4]; [10],0.065 ± 0.001
same,BV/TV,"[4]; tibia, 1 mg · kg^-1 · day^-1",1.67 ± 0.086 %
same,BV/TV,"[4]; tibia, 5 mg · kg^1 · day^1",1.701 ± 0.120 %
same,melting point,,135 to 138 °C
same,growth / proliferation of the osteoblastic cells,[1],proliferation
same,toxicity to the cells,"[1]; osteoblasts, 1 pM to 1 μM for 48 h, vs vehicle control",not toxic
same,increase in BMP-2 expression,[3],15 fold
same,ALP activity,[2],significantly increased
same,"increase in osteoblast differentiation over the control, assessed by ALP production","[2]; over the control, listed as Caviunin 7-O-[β-D-apiofuranosyl-(1→6)-β-D-glucopyranoside]",> 1.0 fold
same,mineralization of the bone marrow stromal cells,[5],significantly greater mineralization
"C[C@]12CC[C@@H]3c4ccc(O)cc4CC[C@H]3[C@@H]1CC[C@@H]2O [ESTRADIOL (E2), Estradiol]",SMI,[6]; femur,2.41 ± 0.13
same,Tb. No.,[6]; femur,0.725 ± 0.024
same,Tb. Sp.,[6]; femur,0.86 ± 0.004
same,Tb. Th.,[6]; femur,0.78 ± 0.01
same,BV/TV,[6]; femur,59.23 ± 30.19 %
same,SMI,[6]; tibia,2.24 ± 0.021
same,Tb. No.,[6]; tibia,0.30 ± 0.02
same,Tb. Sp.,[6]; tibia,1.29 ± 0.029
same,Tb. Th.,[6]; tibia,0.10 ± 0.004
same,BV/TV,[6]; tibia,3.04 ± 0.24 %
same,mineralization of the bone marrow stromal cells,[5],unable to increase mineralization
